Laboratory results published in patent US20030104079A1, “Skin tissue regeneration promoters comprising ginsenoside Rb1” (Japan Science and Technology Corporation, Japan, priority 2000, published 2003).

How the values were obtained:
incised wound of skin = test: Incised wound healing by intravenous infusion; assay type: in vivo, Wistar rats; settings: vs physiological saline
Method: In order to investigate the effects of low dosages, low doses or low concentrations of ginsenoside Rb1 on regeneration and/or reconstruction of skin tissue, the effect(s) of continuous intravenous infusion of ginsenoside Rb1 on incised wound of skin which enabled us to observe easily regeneration phenomena of tissues or cells was examined. Male, Wistar rats (body weight about 300 g) were used. The animals were bred in a room with a 12:12 hour light-dark cycle, and water and feed were supplied ad libitum. Incised wound with length about 3 cm was made in the dorsal region of animals under inhalation anesthesia, and sutured with nylon thread. One hour later, ginsenoside Rb1 (60 μg) dissolved in physiological saline was once intravenously injected. Thereafter continuous intravenous infusion of ginsenoside Rb1 (60 μg/day) was performed for 7 days by using an Alza osmotic minipump.
An equal amount of physiological saline was administered intravenously in the control animals, for which the same […] was made and sutured with nylon thread.
On day 2 after finishing continuous intravenous administration of ginsenoside Rb1 or physiological saline, the animals were anesthetized with pentobarbital and perfused transcardially with 0.1 M phosphate buffer containing 4% paraformaldehyde. […]

cerebral infarct lesion = tested on: cerebral infarct lesion; set-up: therapeutic effect for cerebral apoplexy and cerebral infarction: dose or concentration left out as unconfirmed; settings: cited from earlier work
spinal cord injury = settings: continuous intravenous administration 60 pg/day; cited from earlier work

CC(C)=CCC[C@](C)(O[C@@H]1O[C@H](CO[C@@H]2O[C@H](CO)[C@@H](O)[C@H](O)[C@H]2O)[C@@H](O)[C@H](O)[C@H]1O)[C@H]1CC[C@]2(C)[C@@H]1[C@H](O)C[C@@H]1[C@@]3(C)CC[C@H](O[C@@H]4O[C@H](CO)[C@@H](O)[C@H](O)[C@H]4O[C@@H]4O[C@H](CO)[C@@H](O)[C@H](O)[C@H]4O)C(C)(C)[C@@H]3CC[C@]12C [ginsenoside Rb1]
scar or granulation formation in incised wound (HE histology, FIG. 1) (incised wound of skin; 60 μg/day continuous iv for 7 days after one iv infusion, two days after end of infusion): scar or granulation formation was obviously little
regeneration and reconstruction of epidermis, dermis and subcutaneous tissue after incised wound (incised wound of skin; 60 μg/day continuous iv for 7 days): regenerated, reconstructed or recovered to the nearly normal condition
therapeutic effect for cerebral infarction and cerebral apoplexy (cerebral infarct lesion; continuous intravenous administration 6 μg/day): superior therapeutic effect
therapeutic effect for cerebral apoplexy and cerebral infarction (cerebral infarct lesion; continuous intravenous administration): superior therapeutic effect
volume of cerebral infarct lesion (cerebral infarct lesion; intravenous continuous administration of low dosages, JP Appln. No. Hei 10-365560): about ¼
standing up of bed-ridden rats with spinal cord injury (spinal cord injury): could stand up bed-ridden rats
